Assay results taken from US9650395B2, “Antibacterial compounds and methods for use” (PTC Therapeutics, Inc., priority 2011, dated 2017).
≈ marks a conversion by molar mass, not a printed value. Where two headings read alike, the source gives them in different places.

Tests used:
[1] = tested on: super sensitive Gram-negative Escherichia coli (E. coli) BAS849; test: Antibacterial activity, microbroth dilution MIC, E. coli BAS849; type: cell-based; details: Escherichia coli, read-out: MIC, BAS849
[2] = tested on: Gram-positive Staphylococcus aureus (S. aureus) 29213; test: Antibacterial activity, microbroth dilution MIC, S. aureus 29213; type: cell-based; details: Staphylococcus aureus; S. aureus 29213, microbroth dilution; read-out: MIC, 29213
[3] = tested on: Haemophilus influenzae (H. influenzae) 49247; test: Antibacterial activity, MIC, H. influenzae 49247; type: cell-based; details: Haemophilus influenzae; H. influenzae 49247; read-out: MIC 49247
Source text: (§1) The antibacterial activity from a microbroth dilution method may be presented as the minimum inhibitory concentration (MIC in […]). The MIC value is the lowest concentration of a drug which prevents macroscopically visible bacterial growth under test conditions.
Antibacterial activity of test compounds against the Gram-negative bacteria Haemophilus influenzae (H. influenzae) 49247, Moraxella catarrhalis (M. catarrhalis) 25238 and Neisseria meningitidis (N. meningitidis) 13090 is shown in Table 6.

[4] = tested on: Moraxella catarrhalis (M. catarrhalis) 25238; test: Antibacterial activity, MIC, M. catarrhalis 25238; type: cell-based; details: Moraxella catarrhalis, M. catarrhalis 25238; read-out: MIC 25238
[5] = tested on: Neisseria meningitidis (N. meningitidis) 13090; test: Antibacterial activity, MIC, N. meningitidis 13090; type: cell-based; details: Neisseria meningitidis; N. meningitidis 13090; read-out: MIC 13090
[6] = tested on: control Gram-negative E. coli 25922 strain; test: Antibacterial activity, microbroth dilution MIC, E. coli 25922; type: cell-based, Escherichia coli; details: Escherichia coli; E. coli 25922, microbroth dilution; read-out: MIC, 25922
[7] = tested on: quinolone resistant E. coli LZ3111; test: Antibacterial activity, MIC, quinolone resistant E. coli LZ3111; type: cell-based, Escherichia coli; details: Escherichia coli, read-out: MIC, LZ3111
Source text: as §1
Mutations in these regions are known to confer a high level resistance to the quinolone class of antibiotics.

[8] = tested on: E. coli ELZ4000 (MDR clinical isolate); test: Antibacterial activity, MIC, MDR E. coli ELZ4000; type: cell-based, Escherichia coli; details: Escherichia coli; E. coli ELZ4000, MDR clinical isolate; read-out: MIC ELZ4000
[9] = tested on: E. coli ELZ4251 (MDR clinical isolate); test: Antibacterial activity, MIC, MDR E. coli ELZ4251; type: cell-based, Escherichia coli; details: Escherichia coli, E. coli ELZ4251, MDR clinical isolate; read-out: MIC ELZ4251
[10] = E. coli BAS849, microbroth dilution

Compound	MIC [1, 10] [µg/mL]	MIC [2] [µg/mL]	MIC [3] [µg/mL]	MIC [4] [µg/mL]	MIC [5] [µg/mL]	MIC [6] [µg/mL]	MIC [1] [µg/mL]	MIC [7] [µg/mL]	MIC [8] [µg/mL]	MIC [9] [µg/mL]
CN(C)c1ccc(-c2[nH]c(=O)c(C(=O)O)cc2Cc2ccccc2)cc1 [Cpd 1, 5-benzyl-6-[4-(dimethylamino)phenyl]-2-oxo-1,2-dihydropyridine-3-carboxylic acid]	12.5 to 150 (≈ 35.9 to 431 µM)	12.5 to 150 (≈ 35.9 to 431 µM)	< 1	3.5 to 12.5 (≈ 10 to 35.9 µM)	3.5 to 12.5 (≈ 10 to 35.9 µM)	–	–	–	–	–
CN(C)c1ccc(-c2[nH]c(=O)c(C(=O)O)c(O)c2Cc2ccccc2)cc1 [Cpd 2, 5-benzyl-6-[4-(dimethylamino)phenyl]-4-hydroxy-2-oxo-1,2-dihydropyridine-3-carboxylic acid]	12.5 to 150 (≈ 34.3 to 412 µM)	3.5 to 12.5 (≈ 9.6 to 34.3 µM)	< 1	< 1	< 1	12.5 to 150 (≈ 34.3 to 412 µM)	–	–	–	–
CN(C)c1ccc(-c2[nH]c(=O)c(C(=O)O)cc2C2CCCCC2)cc1 [Cpd 6, 5-cyclohexyl-6-[4-(dimethylamino)phenyl]-2-oxo-1,2-dihydropyridine-3-carboxylic acid]	3.5 to 12.5 (≈ 10.3 to 36.7 µM)	12.5 to 150 (≈ 36.7 to 441 µM)	< 1	3.5 to 12.5 (≈ 10.3 to 36.7 µM)	< 1	12.5 to 150 (≈ 36.7 to 441 µM)	–	–	–	–
CN(C)c1ccc(-c2[nH]c(=O)c(C(=O)O)c(O)c2C2CCCCC2)cc1 [Cpd 7, 5-cyclohexyl-6-[4-(dimethylamino)phenyl]-4-hydroxy-2-oxo-1,2-dihydropyridine-3-carboxylic acid]	3.5 to 12.5 (≈ 9.82 to 35.1 µM)	1 to 3.5 (≈ 2.81 to 9.82 µM)	< 1	< 1	1 to 3.5 (≈ 2.81 to 9.82 µM)	12.5 to 150 (≈ 35.1 to 421 µM)	–	–	–	–
CCCc1c(-c2ccc(N(C)C)cc2)[nH]c(=O)c(C(=O)O)c1O [Cpd 9, 6-[4-(dimethylamino)phenyl]-4-hydroxy-2-oxo-5-propyl-1,2-dihydropyridine-3-carboxylic acid]	< 1	1 to 3.5 (≈ 3.16 to 11.1 µM)	< 1	< 1	< 1	12.5 to 150 (≈ 39.5 to 474 µM)	–	–	–	–
CN(C)c1ccc(-c2[nH]c(=O)c(C(=O)O)cc2C(=O)O)cc1 [Cpd 11, 6-[4-(dimethylamino)phenyl]-2-oxo-1,2-dihydropyridine-3,5-dicarboxylic acid]	12.5 to 150 (≈ 41.4 to 496 µM)	12.5 to 150 (≈ 41.4 to 496 µM)	< 1	12.5 to 150 (≈ 41.4 to 496 µM)	12.5 to 150 (≈ 41.4 to 496 µM)	12.5 to 150 (≈ 41.4 to 496 µM)	–	–	–	–
CN(C)c1ccc(-c2[nH]c(=O)c(C(=O)O)c(O)c2C2CC2)cc1 [Cpd 13, 5-cyclopropyl-6-[4-(dimethylamino)phenyl]-4-hydroxy-2-oxo-1,2-dihydropyridine-3-carboxylic acid]	1 to 3.5 (≈ 3.18 to 11.1 µM)	3.5 to 12.5 (≈ 11.1 to 39.8 µM)	< 1	< 1	< 1	12.5 to 150 (≈ 39.8 to 477 µM)	–	–	–	–
CN(C)c1ccc(-c2[nH]c(=O)c(C(=O)O)cc2C#N)cc1 [Cpd 14, 5-cyano-6-[4-(dimethylamino)phenyl]-2-oxo-1,2-dihydropyridine-3-carboxylic acid]	12.5 to 150 (≈ 44.1 to 529 µM)	12.5 to 150 (≈ 44.1 to 529 µM)	< 1	12.5 to 150 (≈ 44.1 to 529 µM)	12.5 to 150 (≈ 44.1 to 529 µM)	12.5 to 150 (≈ 44.1 to 529 µM)	–	–	–	–
CN(C)c1ccc(-c2[nH]c(=O)c(C(=O)O)cc2CN)cc1.Cl [Cpd 22, 5-(aminomethyl)-6-[4-(dimethylamino)phenyl]-2-oxo-1,2-dihydropyridine-3-carboxylic acid hydrochloride]	12.5 to 150	12.5 to 150	12.5 to 150	12.5 to 150	3.5 to 12.5	12.5 to 150	–	–	–	–
CCc1c(-c2ccc(NCCCI)cc2)[nH]c(=O)c(C(=O)O)c1O [Cpd 82, 5-ethyl-4-hydroxy-6-{4-[(3-iodopropyl)amino]phenyl}-2-oxo-1,2-dihydropyridine-3-carboxylic acid]	3.5 to 12.5 (≈ 7.91 to 28.3 µM)	1 to 3.5 (≈ 2.26 to 7.91 µM)	< 1	< 1	< 1	12.5 to 150 (≈ 28.3 to 339 µM)	–	–	–	–
Cc1cc(C(=O)O)c(=O)[nH]c1-c1ccc(N2CCOCC2)c(F)c1 [Cpd 89, 6-[3-fluoro-4-(morpholin-4-yl)phenyl]-5-methyl-2-oxo-1,2-dihydropyridine-3-carboxylic acid]	12.5 to 150 (≈ 37.6 to 451 µM)	12.5 to 150 (≈ 37.6 to 451 µM)	< 1	12.5 to 150 (≈ 37.6 to 451 µM)	12.5 to 150 (≈ 37.6 to 451 µM)	12.5 to 150 (≈ 37.6 to 451 µM)	–	–	–	–
CCc1cc(C(=O)O)c(=O)[nH]c1-c1ccc(N2CCN(C(=O)OC(C)(C)C)CC2)c(F)c1 [Cpd 91, 6-{4-[4-(tert-butoxycarbonyl)piperazin-1-yl]-3-fluorophenyl}-5-ethyl-2-oxo-1,2-dihydropyridine-3-carboxylic acid]	12.5 to 150 (≈ 28.1 to 337 µM)	12.5 to 150 (≈ 28.1 to 337 µM)	1 to 3.5 (≈ 2.24 to 7.86 µM)	< 1	3.5 to 12.5 (≈ 7.86 to 28.1 µM)	12.5 to 150 (≈ 28.1 to 337 µM)	–	–	–	–
CCc1c(-c2ccc(N(CC)CC)cc2)[nH]c(=O)c(C(=O)O)c1O [Cpd 98, 6-[4-(diethylamino)phenyl]-5-ethyl-4-hydroxy-2-oxo-1,2-dihydropyridine-3-carboxylic acid]	< 1	3.5 to 12.5 (≈ 10.6 to 37.8 µM)	1 to 3.5 (≈ 3.03 to 10.6 µM)	3.5 to 12.5 (≈ 10.6 to 37.8 µM)	< 1	12.5 to 150 (≈ 37.8 to 454 µM)	–	–	–	–
CCc1cc(C(=O)O)c(=O)[nH]c1-c1ccc(N2CCN(C(=O)OC(C)(C)C)CC2)cc1 [Cpd 102, 6-{4-[4-(tert-butoxycarbonyl)piperazin-1-yl]phenyl}-5-ethyl-2-oxo-1,2-dihydropyridine-3-carboxylic acid]	1 to 3.5 (≈ 2.34 to 8.19 µM)	12.5 to 150 (≈ 29.2 to 351 µM)	1 to 3.5 (≈ 2.34 to 8.19 µM)	< 1	1 to 3.5 (≈ 2.34 to 8.19 µM)	12.5 to 150 (≈ 29.2 to 351 µM)	–	–	–	–
CCc1cc(C(=O)O)c(=O)[nH]c1-c1ccc(N2CCNCC2)cc1.O=C(O)C(F)(F)F [Cpd 103, 5-ethyl-2-oxo-6-[4-(piperazin-1-yl)phenyl]-1,2-dihydropyridine-3-carboxylic acid trifluoroacetate]	–	12.5 to 150	< 1	12.5 to 150	3.5 to 12.5	12.5 to 150	3.5 to 12.5	–	–	–
CCc1cc(C(=O)O)c(=O)[nH]c1-c1ccc(-n2ccnc2)cc1 [Cpd 106, 5-ethyl-6-[4-(1H-imidazol-1-yl)phenyl]-2-oxo-1,2-dihydropyridine-3-carboxylic acid]	12.5 to 150 (≈ 40.4 to 485 µM)	12.5 to 150 (≈ 40.4 to 485 µM)	< 1	12.5 to 150 (≈ 40.4 to 485 µM)	3.5 to 12.5 (≈ 11.3 to 40.4 µM)	12.5 to 150 (≈ 40.4 to 485 µM)	–	–	–	–
CCc1c(-c2ccc(N3CCCCC3)cc2)[nH]c(=O)c(C(=O)O)c1O [Cpd 109, 5-ethyl-4-hydroxy-2-oxo-6-[4-(piperidin-1-yl)phenyl]-1,2-dihydropyridine-3-carboxylic acid]	< 1	3.5 to 12.5 (≈ 10.2 to 36.5 µM)	< 1	< 1	< 1	12.5 to 150 (≈ 36.5 to 438 µM)	–	–	–	–
CCc1cc(C(=O)O)c(=O)[nH]c1-c1ccc(N2CCCC2=O)cc1 [Cpd 114, 5-ethyl-2-oxo-6-[4-(2-oxopyrrolidin-1-yl)phenyl]-1,2-dihydropyridine-3-carboxylic acid]	1 to 3.5 (≈ 3.06 to 10.7 µM)	12.5 to 150 (≈ 38.3 to 460 µM)	< 1	< 1	< 1	12.5 to 150 (≈ 38.3 to 460 µM)	–	–	–	–
CCc1cc(C(=O)O)c(=O)[nH]c1-c1ccc(N(C)CC)cc1 [Cpd 160, 5-ethyl-6-{4-[ethyl(methyl)amino]phenyl}-2-oxo-1,2-dihydropyridine-3-carboxylic acid]	< 1	12.5 to 150 (≈ 41.6 to 499 µM)	< 1	< 1	–	1 to 3.5 (≈ 3.33 to 11.7 µM)	–	12.5 to 150 (≈ 41.6 to 499 µM)	12.5 to 150 (≈ 41.6 to 499 µM)	12.5 to 150 (≈ 41.6 to 499 µM)
